Source: article PMC7549094 (Journal of Medicinal Chemistry, 2020)

How the values were obtained:
hr GR ag = biological target: T1, hr GR ag (Homo sapiens, UniProt P04150); assay: receptor profile (Table S4); assay type: biochemical
T1 sequence (P04150 1-777): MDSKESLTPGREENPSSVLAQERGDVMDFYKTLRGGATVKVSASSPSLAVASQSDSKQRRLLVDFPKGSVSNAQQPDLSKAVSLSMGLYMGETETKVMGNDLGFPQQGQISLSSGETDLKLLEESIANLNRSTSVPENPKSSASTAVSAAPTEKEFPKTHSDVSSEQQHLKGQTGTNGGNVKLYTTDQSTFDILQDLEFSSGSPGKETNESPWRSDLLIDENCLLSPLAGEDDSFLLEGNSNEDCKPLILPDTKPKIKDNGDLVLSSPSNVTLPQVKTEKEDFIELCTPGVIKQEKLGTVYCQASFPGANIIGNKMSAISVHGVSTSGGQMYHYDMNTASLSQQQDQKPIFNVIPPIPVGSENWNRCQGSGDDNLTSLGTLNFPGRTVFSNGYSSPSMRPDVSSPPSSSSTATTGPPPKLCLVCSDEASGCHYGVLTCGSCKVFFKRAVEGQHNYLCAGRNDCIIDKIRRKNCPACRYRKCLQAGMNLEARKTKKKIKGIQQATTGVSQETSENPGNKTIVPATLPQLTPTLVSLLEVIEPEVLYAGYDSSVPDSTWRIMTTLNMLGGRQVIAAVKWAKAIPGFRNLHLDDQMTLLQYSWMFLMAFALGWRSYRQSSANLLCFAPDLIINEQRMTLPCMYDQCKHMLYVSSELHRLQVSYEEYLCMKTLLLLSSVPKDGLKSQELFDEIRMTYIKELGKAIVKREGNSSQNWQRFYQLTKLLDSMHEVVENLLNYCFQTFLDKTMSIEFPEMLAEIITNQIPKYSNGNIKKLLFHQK

in vivo = details: male, Sprague-Dawley, rat
hr V1a = hr V1a (Homo sapiens, UniProt P37288); assay: receptor profile (Table S4); assay type: binding
hr V1a, sequence (P37288 whole entry): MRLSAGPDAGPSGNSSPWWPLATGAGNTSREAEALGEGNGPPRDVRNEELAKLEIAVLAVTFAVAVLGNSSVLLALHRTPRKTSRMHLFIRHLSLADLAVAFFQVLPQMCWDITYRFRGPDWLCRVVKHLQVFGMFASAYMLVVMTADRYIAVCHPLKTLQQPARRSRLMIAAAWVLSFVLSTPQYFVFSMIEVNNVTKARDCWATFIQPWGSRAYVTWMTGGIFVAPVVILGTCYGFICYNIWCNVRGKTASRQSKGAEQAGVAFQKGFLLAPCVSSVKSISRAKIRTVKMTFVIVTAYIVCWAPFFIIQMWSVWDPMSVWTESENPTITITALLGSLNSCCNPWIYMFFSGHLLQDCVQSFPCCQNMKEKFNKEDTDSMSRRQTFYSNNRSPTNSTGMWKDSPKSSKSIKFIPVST

hr D1 ag = hr D1 ag (Homo sapiens, UniProt P21728); assay: receptor profile (Table S4); assay type: biochemical
hr D1 ag, sequence (P21728 whole entry): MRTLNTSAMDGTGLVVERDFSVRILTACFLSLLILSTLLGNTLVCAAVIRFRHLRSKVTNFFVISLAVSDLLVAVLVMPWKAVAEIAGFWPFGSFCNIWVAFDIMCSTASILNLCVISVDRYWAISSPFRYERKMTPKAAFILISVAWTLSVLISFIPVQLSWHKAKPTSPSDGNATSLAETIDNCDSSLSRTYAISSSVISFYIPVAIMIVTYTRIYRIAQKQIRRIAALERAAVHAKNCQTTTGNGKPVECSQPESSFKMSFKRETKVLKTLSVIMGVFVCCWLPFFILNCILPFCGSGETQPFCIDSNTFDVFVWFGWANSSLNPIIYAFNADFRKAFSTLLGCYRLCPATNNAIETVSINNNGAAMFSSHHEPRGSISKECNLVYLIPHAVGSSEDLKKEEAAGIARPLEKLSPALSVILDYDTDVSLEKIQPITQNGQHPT

PXR = PXR (Homo sapiens, UniProt O75469); assay: receptor profile (Table S4); details: human
PXR, sequence (O75469 whole entry): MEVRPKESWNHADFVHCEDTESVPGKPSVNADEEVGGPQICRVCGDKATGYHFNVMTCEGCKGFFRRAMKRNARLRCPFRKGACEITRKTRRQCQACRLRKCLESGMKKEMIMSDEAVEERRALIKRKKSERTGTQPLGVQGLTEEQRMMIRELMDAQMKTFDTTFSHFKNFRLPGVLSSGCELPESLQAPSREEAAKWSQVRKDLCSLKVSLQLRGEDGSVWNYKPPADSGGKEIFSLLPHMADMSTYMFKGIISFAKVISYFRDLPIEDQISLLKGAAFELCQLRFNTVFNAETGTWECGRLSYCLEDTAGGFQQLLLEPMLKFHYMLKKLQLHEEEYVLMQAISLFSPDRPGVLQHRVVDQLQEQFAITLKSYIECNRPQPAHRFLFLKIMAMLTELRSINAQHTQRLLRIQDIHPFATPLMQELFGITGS

hr PXR antag = hr PXR antag (Homo sapiens, UniProt O75469); assay: receptor profile (Table S4); details: hr PXR antag
hr PXR antag, sequence (O75469 whole entry): as above

hr GR antag = biological target: T2, hr GR antag (Homo sapiens, UniProt P04150); assay: receptor profile (Table S4); assay type: biochemical
T2 sequence (P04150 1-777): T1 sequence (P04150 1-777)

hr Mot = hr Mot (Homo sapiens, UniProt O43193); assay: receptor profile (Table S4); assay type: binding
hr Mot, sequence (O43193 whole entry): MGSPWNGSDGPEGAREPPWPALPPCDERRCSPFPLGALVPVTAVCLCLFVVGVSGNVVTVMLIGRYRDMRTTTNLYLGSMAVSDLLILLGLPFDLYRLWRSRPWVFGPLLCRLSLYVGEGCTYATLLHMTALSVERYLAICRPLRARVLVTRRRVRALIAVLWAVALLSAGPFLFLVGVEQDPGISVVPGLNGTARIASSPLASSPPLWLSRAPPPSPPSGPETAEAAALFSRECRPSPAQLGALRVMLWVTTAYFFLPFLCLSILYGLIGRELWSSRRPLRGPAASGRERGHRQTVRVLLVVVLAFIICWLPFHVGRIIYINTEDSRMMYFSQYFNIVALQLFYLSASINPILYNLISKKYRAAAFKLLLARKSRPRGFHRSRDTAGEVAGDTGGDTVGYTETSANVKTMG

hr 5-HT2C = biological target: T3, hr 5-HT2C (Homo sapiens, UniProt P28335); assay: receptor profile (Table S4); assay type: binding
T3 sequence (P28335 33-458): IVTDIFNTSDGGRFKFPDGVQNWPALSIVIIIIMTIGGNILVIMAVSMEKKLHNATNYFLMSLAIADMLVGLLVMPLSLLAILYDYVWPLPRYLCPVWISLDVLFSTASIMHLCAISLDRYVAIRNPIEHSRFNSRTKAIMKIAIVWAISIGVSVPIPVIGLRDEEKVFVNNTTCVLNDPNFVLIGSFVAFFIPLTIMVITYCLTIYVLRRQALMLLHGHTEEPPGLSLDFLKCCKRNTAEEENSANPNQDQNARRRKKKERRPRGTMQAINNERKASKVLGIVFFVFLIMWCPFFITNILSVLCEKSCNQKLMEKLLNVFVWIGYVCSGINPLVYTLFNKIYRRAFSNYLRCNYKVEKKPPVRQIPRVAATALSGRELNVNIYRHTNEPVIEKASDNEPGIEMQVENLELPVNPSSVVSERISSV

L. major = assay: BALB/c mouse lesion cure model of Old World cutaneous leishmaniasis; assay type: in vivo; details: BALB/c mice infected with L. major; 20 mg/kg b.i.d. PO, 10 days
Text: Data in the graph show progression of lesion sizes at the base of the tail of BALB/c mice infected with 1 × 10^7L. major parasites after 10 days of treatment. Experimental time points represent the mean lesion sizes ± SEM (n = 6). Single-factor ANOVA (Dunnet’s test) was used to determine the statistical significance of differences in lesion sizes between vehicle and compound-treated groups (P < 0.05).
Lesion cure model of Old World leishmaniasis (L. major). Female BALB/c mice (6 weeks old) were
used in this model. Mice were infected intradermally at base of the tail with 100 µl parasite culture
containing 1x107 L. major MHOM/IR/-/173 stationary phase promastigotes. Starting from the third week
post-infection, the lesion induration diameters (length=D1 and width=D2) were measured using a caliper
instrument (Fisher Scientific, USA) with 0.1 mm sensitivity. Length and width measurements were taken to account for asymmetrical lesions. Lesion size area was then calculated using the πR1*R2 formula
(where R1=D1/2 and R2 = D2/2). Lesions were measured at a 10 -day (+/- 2 days) interval until the end
of the study. Experimental endpoint is lesion cure or % lesion size re duction relative to lesion size in
vehicle-treated group. Lesion cure is considered 100% re-epithelialization of the lesion (lesion size = 0
10 mg/kg and 20 mg/kg twice-daily). In a positive control treatment group, animals were dosed by […]

hr Al1A ag = biological target: T4, hr Al1A ag (Homo sapiens, UniProt P35348); assay: receptor profile (Table S4); assay type: biochemical
T4 sequence (P35348 1-466): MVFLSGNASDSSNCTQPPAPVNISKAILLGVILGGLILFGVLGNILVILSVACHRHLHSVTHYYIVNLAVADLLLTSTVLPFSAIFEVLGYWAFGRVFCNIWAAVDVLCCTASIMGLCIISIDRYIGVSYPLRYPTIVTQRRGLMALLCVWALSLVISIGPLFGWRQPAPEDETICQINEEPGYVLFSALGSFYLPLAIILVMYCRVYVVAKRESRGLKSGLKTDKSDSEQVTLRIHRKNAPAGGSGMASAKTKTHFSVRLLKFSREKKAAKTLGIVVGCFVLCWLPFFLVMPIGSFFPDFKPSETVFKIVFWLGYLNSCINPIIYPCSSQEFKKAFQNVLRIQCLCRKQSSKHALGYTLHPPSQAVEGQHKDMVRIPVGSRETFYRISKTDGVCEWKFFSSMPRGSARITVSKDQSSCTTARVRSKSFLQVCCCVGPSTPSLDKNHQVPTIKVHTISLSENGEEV

Cc1nc(C)c(C(=O)Nc2ccc(F)c(-c3nc4ncc(-c5ncccc5C)cn4n3)c2)o1 [compound 1, N-(4-Fluoro-3-(6-(3-methylpyridin-2-yl)-[1,2,4]triazolo[1,5-a]pyrimidin-2-yl)phenyl)-2,4-dimethyloxazole-5-carboxamide]
EC50/IC50 (hr GR ag; hr GR ag): > 30 µM
inhibition at 10 µM (hr GR ag; read-out: % inh/act @ 10 µM): -5%
inhibition at 30 µM (hr GR ag; read-out: % inh/act @ 30 µM): -4%
clearance (in vivo; in vivo, iv, 3 mg/kg): 2.1 mL/min/kg
MRT (in vivo; plasma, iv, 3 mg/kg): 4.3 h
Vd (in vivo; plasma, iv, 3 mg/kg): 0.53 L/kg
half-life (in vivo; plasma, iv, 3 mg/kg): 3.8 h
bioavailability (in vivo; plasma, po, 10 mg/kg): 67%
% inh/act @ 10 µM (hr GABAA antag): -5%
% inh/act @ 30 µM (hr GABAA antag): -4%
EC50/IC50 (hr V1a; hr V1a): > 30 µM
inhibition at 10 µM (hr V1a; read-out: % inh/act @ 10 µM): 11%
inhibition at 30 µM (hr V1a; read-out: % inh/act @ 30 µM): 19%
EC50/IC50 (hr D1 ag; hr D1 ag): > 30 µM
inhibition at 10 µM (hr D1 ag; read-out: % inh/act @ 10 µM): 6%
inhibition at 30 µM (hr D1 ag; read-out: % inh/act @ 30 µM): 2%
inhibition at 10 µM (PXR): 26%
EC50/IC50 (hr PXR antag): > 30 µM
EC50/IC50 (hr GR antag; hr GR antag): > 30 µM
inhibition at 10 µM (hr GR antag; read-out: % inh/act @ 10 µM): 0%
inhibition at 30 µM (hr GR antag; read-out: % inh/act @ 30 µM): 10%
EC50/IC50 (hr Mot; hr Mot): > 30 µM
inhibition at 10 µM (hr Mot; read-out: % inh/act @ 10 µM): -3%
inhibition at 30 µM (hr Mot; read-out: % inh/act @ 30 µM): 3%
EC50/IC50 (hr 5-HT2C; hr 5-HT2C): > 30 µM
inhibition at 10 µM (hr 5-HT2C; read-out: % inh/act @ 10 µM): 9%
inhibition at 30 µM (hr 5-HT2C; read-out: % inh/act @ 30 µM): 8%
% inh/act @ 10 µM (r BZD): 7%
% inh/act @ 30 µM (r BZD): 7%
therapeutic effect on skin lesions (L. major): comparable to that of liposomal amphotericin B
% inh/act @ 10 µM (hr GABAA ag): -11%
% inh/act @ 30 µM (hr GABAA ag): -2%
EC50/IC50 (hr Al1A ag; hr Al1A ag): > 30 µM
inhibition at 10 µM (hr Al1A ag; read-out: % inh/act @ 10 µM): 0%
inhibition at 30 µM (hr Al1A ag; read-out: % inh/act @ 30 µM): 1%
